Measured values from patent US6825170B2, “6-O-acyl ketolide antibacterials” (Ortho-McNeil Pharmaceutical, Inc., priority 2001, dated 2004).
In brackets after ≈: the same amount, converted by molar mass.

Assays:
Assay in all cases: MIC, microdilution broth method (NCCLS)
Type in all cases: cell-based
Conditions in all cases: 35° C., 16-20 hours
S. aureus ATCC29213 = system: S. aureus ATCC29213
Method: (§1) Minimal inhibitory concentration (MIC) has been an indicator of in vitro antibacterial activity widely used in the art. The in vitro antimicrobial activity of the compounds was determined by the microdilution broth method following the test method from the National Committee for Clinical Laboratory Standards (NCCLS). This method is described in the NCCLS Document M7-A4, Vol.17, No.2, “Methods for Dilution Antimicrobial Susceptibility Test for Bacteria that Grow Aerobically—Fourth Edition”, which is incorporated herein by reference.
(§2) In this method two-fold serial dilutions of drug in cation adjusted Mueller-Hinton broth are added to wells in microdilution trays. The test organisms are prepared by adjusting the turbidity of actively growing broth cultures so that the final concentration of test organism after it is added to the wells is approximately 5×10^4 CFU/well.
(§3) Following inoculation of the microdilution trays, the trays are incubated at 35° C. for 16-20 hours and then read. […] The amount of growth in the wells containing the test compound is compared with the amount of growth in the growth-control wells (no test compound) used in each tray. As set forth in Table 1, compounds of the present invention were tested against a variety of Gram positive and Gram negative pathogenic bacteria resulting in a range of activities depending on the organism tested.

E. faecalis ATCC29212 = system: E. faecalis ATCC29212
Method: as §1, §2, §3

H. influenzae ATCC49247 = system: H. influenzae ATCC49247
Method: as §1, §2, §3

S. pneumoniae ATCC49619 = system: S. pneumoniae ATCC49619
Method: as §1, §2, §3

Row | Structure (SMILES) | MIC (B: S. aureus ATCC29213) (S. aureus ATCC29213) [µg/mL] | MIC (C: E. faecalis ATCC29212) (E. faecalis ATCC29212) [µg/mL] | MIC (E: H. influenzae ATCC49247) (H. influenzae ATCC49247) [µg/mL] | MIC (D: S. pneumoniae ATCC49619) (S. pneumoniae ATCC49619) [µg/mL]
1 | CC[C@H]1OC(=O)[C@H](C)C(=O)[C@H](C)[C@@H](O[C@@H]2O[C@H](C)C[C@H](N(C)C)[C@H]2O)[C@](C)(OC(=O)SCc2cnc3ccccc3c2)C[C@@H](C)C(=O)[C@H](C)[C@H]2NC(=O)O[C@@]21C [Compound 838] | 0.25 (≈ 0.313 µM) | 0.12 (≈ 0.15 µM) | 1 (≈ 1.25 µM) | 0.06 (≈ 0.075 µM)
2 | CCC1OC(=O)C(C)C(=O)C(C)C(OC2OC(C)CC(N(C)C)C2O)C(C)(OC(=O)OCC=C(C)c2ccc(-c3ncccn3)cc2)CC(C)C(=O)C(C)C2NC(=O)OC12C (stereo not drawn) [Compound 76] | 0.25 (≈ 0.294 µM) | 0.12 (≈ 0.141 µM) | 1 (≈ 1.18 µM) | 0.03 (≈ 0.0353 µM)
3 | CCC1OC(=O)C(C)C(=O)C(C)C(OC2OC(C)CC(N(C)C)C2O)C(C)(OC(=O)OCC=Cc2ccc(-c3nccs3)cc2)CC(C)C(=O)C(C)C2NC(=O)OC12C (stereo not drawn) [Compound 49] | 0.12 (≈ 0.143 µM) | 0.12 (≈ 0.143 µM) | 1 (≈ 1.19 µM) | 0.03 (≈ 0.0356 µM)
4 | CCC1OC(=O)C(C)C(=O)C(C)C(OC2OC(C)CC(N(C)C)C2O)C(C)(OC(=O)OCC=Cc2ccc(-c3ccn(C)n3)cc2)CC(C)C(=O)C(C)C2NC(=O)OC12C (stereo not drawn) [Compound 26] | 0.25 (≈ 0.298 µM) | 0.12 (≈ 0.143 µM) | 2 (≈ 2.38 µM) | 0.03 (≈ 0.0358 µM)
5 | CC[C@H]1OC(=O)[C@H](C)C(=O)[C@H](C)[C@@H](O[C@@H]2O[C@H](C)C[C@H](N(C)C)[C@H]2O)[C@](C)(OC(=O)SCc2cn(-c3ncccn3)cn2)C[C@@H](C)C(=O)[C@H](C)[C@H]2NC(=O)O[C@@]21C [Compound 841] | 0.5 (≈ 0.612 µM) | 0.12 (≈ 0.147 µM) | 2 (≈ 2.45 µM) | 0.03 (≈ 0.0367 µM)
6 | CC[C@H]1OC(=O)[C@@](C)(F)C(=O)[C@H](C)[C@@H](O[C@@H]2O[C@H](C)C[C@H](N(C)C)[C@H]2O)[C@](C)(OC(=O)NOC/C=C/c2ccc(-c3ncccn3)cc2)C[C@@H](C)C(=O)[C@H](C)[C@H]2NC(=O)O[C@@]21C [Compound 622] | 0.25 (≈ 0.287 µM) | 0.25 (≈ 0.287 µM) | 4 (≈ 4.6 µM) | 0.03 (≈ 0.0345 µM)
7 | CC[C@H]1OC(=O)[C@H](C)C(=O)[C@H](C)[C@@H](O[C@@H]2O[C@H](C)C[C@H](N(C)C)[C@H]2O)[C@](C)(OC(=O)CCCc2ccccc2)C[C@@H](C)C(=O)[C@H](C)[C@H]2NC(=O)O[C@@]21C [Compound 844] | 0.5 (≈ 0.671 µM) | 0.12 (≈ 0.161 µM) | 4 (≈ 5.37 µM) | 0.03 (≈ 0.0403 µM)
8 | CCC1OC(=O)C(C)C(=O)C(C)C(OC2OC(C)CC(N(C)C)C2O)C(C)(OC(=O)OCC=Cc2cnn(-c3ccccc3)c2)CC(C)C(=O)C(C)C2NC(=O)OC12C (stereo not drawn) [Compound 33] | 0.25 (≈ 0.303 µM) | 0.12 (≈ 0.145 µM) | 1 (≈ 1.21 µM) | 0.06 (≈ 0.0727 µM)
9 | CC[C@H]1OC(=O)[C@H](C)C(=O)[C@H](C)[C@@H](O[C@@H]2O[C@H](C)C[C@H](N(C)C)[C@H]2O)[C@](C)(OC(=O)SCc2ccc(-n3cncn3)cc2)C[C@@H](C)C(=O)[C@H](C)[C@H]2NC(=O)O[C@@]21C [Compound 840] | 0.5 (≈ 0.613 µM) | 0.12 (≈ 0.147 µM) | 2 (≈ 2.45 µM) | 0.06 (≈ 0.0735 µM)
